Assay results taken from US5434136A, “Treatment of motility disorders with a GNRH analog” (priority 1992, dated 1995).
Like-named read-outs stand apart in the source and are kept apart here.

Assays:
[1] = test system: serum estradiol, progesterone, LH, FSH; test: Serum estradiol, progesterone, FSH and LH by radioimmunoassay before and after three months of leuprolide; assay type: in vivo, human; conditions: for Estradiol after 3 months / Progesterone after 3 months / FSH after 3 months / LH after 3 months: serum
Description: (§1) The symptoms of the two patients with GMD were abdominal pain located in the right upper quadrant and epigastrium, daily nausea, and intermittent vomiting exacerbated by eating and by the luteal phase of the menstrual cycle. The two patients with IIHVN had abdominal pain, nausea, and intermittent vomiting, and also had urinary tract involvement consisting of pain and a decrease in urination. The fifth patient had Roux-en-Y syndrome (defined as epigastric-to-right-upper-quadrant pain, nausea, and vomiting increased by eating) after surgical construction of a gastro-jejunal Roux-en-Y anastomosis. The mean duration of these symptoms was eight years (Table 1). All subjects had undergone extensive blood testing, several upper gastrointestinal x-ray series, barium enemas, esophagogastroduodenoscopy, endoscopic retrograde cholangiopancreatography, gastric emptying tests with radiolabeled meal, ultrasound of the abdomen, computerized axial tomography of the abdomen, and many other tests. The results of all tests were normal, except for prolonged gastric emptying in the patient with the Roux-en-Y Syndrome. Because of their intractable clinical problem, these patients were included in the test protocol with leuprolide acetate. Protocol: The symptoms of each patient were first assessed, and their tests evaluated. Each patient kept a daily symptom diary. Leuprolide acetate was obtained by prescription as Lupron (TAP pharmaceuticals, Abbott Labs, North Chicago, Ill.). One multi-use vial of Lupron comprised of […] Leuprolide Acetate. A daily dose of 0.5 mg ([…]) was self-administered by subcutaneous injection, for a period of three months. Each patient was examined at 0, 1 and 3 months of treatment. After the third month, leuprolide was continued as previously, and estrogen (0.625 mg orally) and calcium (1000 mg orally) were also administered. At the end of the sixth month, a two week withdrawal period from leuprolide acetate ensued. During this period a 10 mg oral dose of progesterone was given to pre-menopausal patients, to assess recurrence of symptoms and to induce menses. Post-menopausal women were not treated with progesterone during the two week withdrawal period. This procedure was then continued for an additional six months, with drug withdrawal and progesterone given every three months to induce a menstrual cycle. Serum estradiol, progesterone, FSH, and LH were quantitated by radioimmunoassay prior to the initiation of leuprolide treatment, and at three months post treatment initiation.

[2] = test system: functional bowel disorders; assay type: in vivo, human
Description: as §1, with “initiation. The procedure of example 1 was followed with additional patients. […] One patient listed as a failure elected to withdraw from the program after four weeks of treatment. One patient after recovering from the symptoms of their autonomic neuropathy expired from a massive myocardial infarction (Responded--expired). These patients were treated with Leuprolide acetate following the protocol established in Example 1.” for “initiation.”

[3] = after three months of treatment vs baseline

With `CCNC(=O)[C@@H]1CCCN1C(=O)[C@H](CCCNC(=N)N)NC(=O)[C@H](CC(C)C)NC(=O)[C@@H](CC(C)C)NC(=O)[C@H](Cc1ccc(O)cc1)NC(=O)[C@H](CO)NC(=O)[C@H](Cc1c[nH]c2ccccc12)NC(=O)[C@H](Cc1c[nH]cn1)NC(=O)[C@@H]1CCC(=O)N1` [Leuprolide acetate, leuprolide acetate] the “Estradiol after 3 months” value ([1]; Patient 1, baseline 44.0 pg/ml) was 13.0 pg/mL, the “Progesterone after 3 months” value ([1]; Patient 1, baseline 3.0 n/ml) was < 0.25 n/ml and the “FSH after 3 months” value ([1]; Patient 1, baseline 12.1 mIU/ml) was 9.0 MIU/ml. The “LH after 3 months” value ([1]; Patient 1, baseline 19.0 mIU/mL) was 6.0 mIU/ml, the “Estradiol after 3 months” value ([1]; Patient 2, baseline 44.0 pg/ml) was 39.0 pg/mL and the “Progesterone after 3 months” value ([1]; Patient 2, baseline 1.0 n/ml) was < 0.25 n/ml. For the same compound, the “FSH after 3 months” value ([1]; Patient 2, baseline 13.0 mIU/ml) was 11.0 MIU/ml, the “LH after 3 months” value ([1]; Patient 2, baseline 16.0 mIU/ml) was 7.0 mIU/ml and the “Estradiol after 3 months” value ([1]; Patient 3, baseline 28.0 pg/ml) was 3.4 pg/mL. For the same compound, the “LH after 3 months” value ([1]; Patient 3, baseline 18.4 mIU/ml) was 11.2 mIU/ml, the “FSH after 3 months” value ([1]; Patient 3, baseline 32.0 mIU/ml) was 11.2 mIU/ml and the “Progesterone after 3 months” value ([1]; Patient 3, baseline <0.25 n/ml) was < 0.25 n/ml. For the same compound, the “Estradiol after 3 months” value ([1]; Patient 4, baseline 20.0 pg/ml) was 5.5 pg/mL, the “Progesterone after 3 months” value ([1]; Patient 4, baseline 3.0 n/ml) was < 0.25 n/ml and the “FSH after 3 months” value ([1]; Patient 4, baseline 13.1 mIU/ml) was 7.9 mIU/ml. The “LH after 3 months” value ([1]; Patient 4, baseline 18.3 mIU/ml) was 5.0 MIU/ml, the “Estradiol and FSH levels” value [1, 3] was “decreased” and the “Levels of serum progesterone and LH” value [1, 3] was “significant decrease”. The “Duration of therapy until symptom free” value ([2]; Patient 7) was ≤ 8 weeks, the Response ([2]; Patient 7, Pelvic Floor Dysfunction) was “symptom free” and the Response ([2]; Patient 7, Pelvic Floor Dysfunction, listed as leuprolide) was “Responded”. The Response ([2]; Patient 8, Chronic Intestinal Pseudo Obstruction, listed as leuprolide) was “Responded”, the Response ([2]; Patient 8, Chronic Intestinal Pseudo Obstruction, listed as leuprolide acetate) was “does not chronically experience severe symptoms” and the “Hospital admissions since therapy was begun” value ([2]; Patient 8, before: at least one week per month in hospital) was “no hospital admissions”. The Response ([2]; Patient 9, Roux-en-Y-Syndrome) was “Responded”, the Response ([2]; Patient 10, Roux-en-Y-Syndrome, withdrew) was “Failure” and the Response ([2]; Patient 11, Chronic Intestinal Pseudo Obstruction, side effects) was “Failure”. For the same compound, the Response ([2]; Patient 12, Roux-en-Y-Syndrome, expired) was “Failure”, the “Need for parental alimentation for weight control” value ([2]; Patient 13) was “no longer requires parental alimentation” and the Urination ([2]; Patient 13) was “improved”. For the same compound, the Response ([2]; Patient 13, Idiopathic Intestinal Hollow Visceral Myopathy/Neuropathy, protocol of example 1) was “improved dramatically”, the Response ([2]; Patient 13, Idiopathic Intestinal Hollow Visceral Myopathy/Neuropathy, protocol of example 1, listed as leuprolide) was “Responded” and the Response ([2]; Patient 14, Pelvic Floor Dysfunction) was “Failure”. For the same compound, the “Need for parental supplementation” value ([2]; Patient 15) was “requires no parental supplementation”, the Response ([2]; Patient 15, Chronic Intestinal Pseudo Obstruction) was “steadily improved” and the Response ([2]; Patient 15, Chronic Intestinal Pseudo Obstruction, listed as leuprolide) was “Responded”. The Response ([2]; Patient 16, Roux-en-Y-Syndrome) was “relieved”, the Response ([2]; Patient 16, Roux-en-Y-Syndrome, listed as leuprolide) was “Responded” and the “Body weight maintained under therapy” value ([2]; Patient 16, weight before 96 pounds) was 115-118 pounds. For the same compound, the “Theophylline requirement for lung disease” value ([2]; Patient 17) was “smaller dose of Theophylline is now required”, the Response ([2]; Patient 17, Gastrointestinal Motor Dysfunction, protocol of example 1) was “abated” and the Response ([2]; Patient 17, Gastrointestinal Motor Dysfunction, protocol of example 1, listed as leuprolide) was “Responded”. The Pulmonary function tests ([2]; Patient 17, chronic obstructive lung disease) was “dramatic improvement”, the Response ([2]; Patient 18, Idiopathic Intestinal Hollow Visceral Myopathy/Neuropathy, protocol of example 1) was “all of their symptoms have improved except for their obstipation” and the Response ([2]; Patient 18, Idiopathic Intestinal Hollow Visceral Myopathy/Neuropathy, protocol of example 1, listed as leuprolide) was “Responded”. The “Duration of therapy after which all symptoms had disappeared” value ([2]; Patient 19) was 6 weeks, the Response ([2]; Patient 19, Gastrointestinal Motor Dysfunction, protocol of example 1, listed as leuprolide) was “Responded” and the “Course after the drug was discontinued” value ([2]; Patient 19, discontinued after six months of treatment) was “no recurrent disease”. The Response ([2]; Patient 20, Gastrointestinal Motor Dysfunction, protocol of example 1) was “symptom-free”, the Response ([2]; Patient 20, Gastrointestinal Motor Dysfunction, protocol of example 1, listed as leuprolide) was “Responded” and the Response ([2]; Patient 21, Gastrointestinal Motor Dysfunction) was “Responded”. For the same compound, the Swallowing and eating ([2]; Patient 22) was “now able to swallow and eat”, the Response ([2]; Patient 22, Gastrointestinal Motor Dysfunction, response seen after three weeks of therapy) was “dramatic response” and the Response ([2]; Patient 22, Gastrointestinal Motor Dysfunction, response seen after three weeks of therapy, listed as leuprolide) was “Responded”. For the same compound, the “Need of opiates for pain” value ([2]; Patient 23) was “did not require opiates for pain”, the Response ([2]; Patient 23, Roux-en-Y-Syndrome) was “Responded” and the Response ([2]; Patient 23, Roux-en-Y-Syndrome, listed as Lupron) was “symptom free”. For the same compound, the “Side effects leading to withdrawal from treatment” value ([2]; human, in vivo) was “bone pain”, the “Number of patients who failed to respond” value ([2]; of the twenty-six treated to date) was “Four” and the “Response of the majority of patients” value ([2]; twenty-six patients treated to date) was “full recovery”.
